Laboratory results as given in patent US9242987B2, “Heterocyclyl pyrazolopyrimidine analogues as JAK inhibitors” (Cellzome Limited, priority 2009, dated 2016).

Tests used:
[1] = biological target: T1, JAK3 (Homo sapiens, UniProt P52333); test: Kinobeads assay, JAK3; format: binding; settings: mixed Molt4/Ramos cell lysate, dot blot detection
T1 construct: endogenous in cells; host or cells: Mixed Molt4/Ramos lysate (1:2)
T1 sequence (P52333 1-1124): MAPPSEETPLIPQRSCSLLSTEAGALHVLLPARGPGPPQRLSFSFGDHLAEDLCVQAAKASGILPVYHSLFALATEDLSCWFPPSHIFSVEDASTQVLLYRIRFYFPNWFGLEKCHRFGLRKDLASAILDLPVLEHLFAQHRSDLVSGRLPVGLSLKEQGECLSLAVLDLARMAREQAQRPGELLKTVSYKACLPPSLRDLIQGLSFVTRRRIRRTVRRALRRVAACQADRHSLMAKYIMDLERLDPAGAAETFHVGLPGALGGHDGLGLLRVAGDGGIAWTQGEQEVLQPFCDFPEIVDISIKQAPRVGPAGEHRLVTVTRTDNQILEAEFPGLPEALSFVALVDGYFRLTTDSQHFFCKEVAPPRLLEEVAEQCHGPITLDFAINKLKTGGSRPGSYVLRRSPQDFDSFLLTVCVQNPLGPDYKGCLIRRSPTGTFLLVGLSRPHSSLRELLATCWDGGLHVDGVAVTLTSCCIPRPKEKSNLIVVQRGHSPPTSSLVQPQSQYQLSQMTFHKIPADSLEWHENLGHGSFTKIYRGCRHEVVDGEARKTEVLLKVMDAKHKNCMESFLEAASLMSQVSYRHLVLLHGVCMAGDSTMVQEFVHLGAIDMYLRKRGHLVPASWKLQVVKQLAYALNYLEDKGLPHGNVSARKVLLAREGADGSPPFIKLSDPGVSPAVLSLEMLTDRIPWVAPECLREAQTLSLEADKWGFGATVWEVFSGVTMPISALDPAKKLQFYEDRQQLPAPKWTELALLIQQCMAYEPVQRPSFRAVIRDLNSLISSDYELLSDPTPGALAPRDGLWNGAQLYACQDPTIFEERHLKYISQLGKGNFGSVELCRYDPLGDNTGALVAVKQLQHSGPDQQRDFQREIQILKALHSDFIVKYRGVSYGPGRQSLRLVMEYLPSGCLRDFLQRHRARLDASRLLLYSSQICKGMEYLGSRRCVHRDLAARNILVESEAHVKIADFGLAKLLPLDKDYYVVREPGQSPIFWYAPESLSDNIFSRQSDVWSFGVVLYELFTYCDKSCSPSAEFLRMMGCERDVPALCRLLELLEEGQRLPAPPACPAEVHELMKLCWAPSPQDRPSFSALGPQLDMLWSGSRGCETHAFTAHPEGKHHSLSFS
Description: (§1) The compounds of the present invention as described in the previous examples were tested in a Kinobeads™ assay as described for ZAP-70 (WO-A 2007/137867). Briefly, test compounds (at various concentrations) and the affinity matrix with the immobilized aminopyrido-pyrimidine ligand 24 were added to cell lysate aliquots and allowed to bind to the proteins in the lysate sample. After the incubation time the beads with captured proteins were separated from the lysate. Bound proteins were then eluted and the presence of JAK2 and JAK3 was detected and quantified using specific antibodies in a dot blot procedure and the Odyssey infrared detection system. Dose response curves for individual kinases were generated and IC50 values calculated. Kinobeads™ assays for ZAP-70 (WO-A 2007/137867) and for kinase selectivity profiling (WO-A 2006/134056) have been previously described.
(§2) The affinity matrix was washed two times with 15 mL of 1×DP buffer containing 0.2% NP40 (IGEPAL® CA-630, Sigma, #13021) and then resuspended in 1×DP buffer containing 0.2% NP40 (3% beads slurry).
(§3) 5×DP buffer: 250 mM Tris-HCl pH 7.4, 25% Glycerol, 7.5 mM MgCl2, 750 mM NaCl, 5 mM Na3VO4; filter the 5×DP buffer through a 0.22 μm filter and store in aliquots at −80° C. The 5×DP buffer is diluted with H2O to 1×DP buffer containing 1 mM DTT and 25 mM NaF.
(§4) Stock solutions of test compounds were prepared in DMSO. In a 96 well plate 30 μL solution of diluted test compounds at 5 mM in DMSO were prepared. Starting with this solution a 1:3 dilution series (9 steps) was prepared. For control experiments (no test compound) a buffer containing 2% DMSO was used.
(§5) Molt4 cells (ATCC catalogue number CRL-1582) and Ramos cells (ATCC catalogue number CRL-1596) were grown in 1 L Spinner flasks (Integra Biosciences, #182101) in suspension in RPMI 1640 medium (Invitrogen, #21875-034) supplemented with 10% Fetal Bovine Serum (Invitrogen) at a density between 0.15×10^6 and 1.2×10^6 cells/mL. Cells were harvested by centrifugation, washed once with 1×PBS buffer (Invitrogen, #14190-094) and cell pellets were frozen in liquid nitrogen and subsequently stored at −80° C. Cells were homogenized in a Potter S homogenizer in lysis buffer: 50 mM Tris-HCl, 0.8% NP40, 5% glycerol, 150 mM NaCl, 1.5 mM MgCl2, 25 mM NaF, 1 mM sodium vanadate, 1 mM DTT, pH 7.5. One complete EDTA-free tablet (protease inhibitor cocktail, Roche Diagnostics, 1873580) per 25 mL buffer was added. The material was dounced 10 times using a mechanized POTTER S, transferred to 50 mL falcon tubes, incubated for 30 minutes on ice and spun down for 10 minutes at 20,000 g at 4° C. (10,000 rpm in Sorvall SLA600, precooled). The supernatant was transferred to an ultracentrifuge (UZ)-polycarbonate tube (Beckmann, 355654) and spun for 1 hour at 100.000 g at 4° C. (33.500 rpm in Ti50.2, precooled). The supernatant was transferred again to a fresh 50 mL falcon tube, the protein concentration was determined by a Bradford assay (BioRad) and samples containing 50 mg of protein per aliquot were prepared. The samples were immediately used for experiments or frozen in liquid nitrogen and stored frozen at −80° C.
(§6) Cell lysate (approximately 50 mg protein per plate) was thawed in a water bath at room temperature and then stored on ice. To the thawed cell lysate 1×DP 0.8% NP40 buffer containing protease inhibitors (1 tablet for 25 mL buffer; EDTA-free protease inhibitor cocktail; Roche Diagnostics 1873580) was added in order to reach a final protein concentration of 10 mg/mL total protein. The diluted cell lysate was stored on ice. Mixed Molt4/Ramos lysate was prepared by combining one volume of Molt4 lysate and two volumes of Ramos lysate (ratio 1:2).
(§7) To a 96 well filter plate (Multiscreen HTS, BV Filter Plates, Millipore #MSBVN1250) were added per well: 100 μL affinity matrix (3% beads slurry), […], of compound solution, and 50 μL of diluted lysate. […]

[2] = biological target: T2, JAK2 (Homo sapiens, UniProt O60674); test: Kinobeads assay, JAK2; format: binding; settings: mixed Molt4/Ramos cell lysate, dot blot detection
T2 construct: endogenous in cells; host or cells: Mixed Molt4/Ramos lysate (1:2)
Description: as §1, §2, §3, §4, §5, §6, §7

T2 sequence (O60674 whole entry): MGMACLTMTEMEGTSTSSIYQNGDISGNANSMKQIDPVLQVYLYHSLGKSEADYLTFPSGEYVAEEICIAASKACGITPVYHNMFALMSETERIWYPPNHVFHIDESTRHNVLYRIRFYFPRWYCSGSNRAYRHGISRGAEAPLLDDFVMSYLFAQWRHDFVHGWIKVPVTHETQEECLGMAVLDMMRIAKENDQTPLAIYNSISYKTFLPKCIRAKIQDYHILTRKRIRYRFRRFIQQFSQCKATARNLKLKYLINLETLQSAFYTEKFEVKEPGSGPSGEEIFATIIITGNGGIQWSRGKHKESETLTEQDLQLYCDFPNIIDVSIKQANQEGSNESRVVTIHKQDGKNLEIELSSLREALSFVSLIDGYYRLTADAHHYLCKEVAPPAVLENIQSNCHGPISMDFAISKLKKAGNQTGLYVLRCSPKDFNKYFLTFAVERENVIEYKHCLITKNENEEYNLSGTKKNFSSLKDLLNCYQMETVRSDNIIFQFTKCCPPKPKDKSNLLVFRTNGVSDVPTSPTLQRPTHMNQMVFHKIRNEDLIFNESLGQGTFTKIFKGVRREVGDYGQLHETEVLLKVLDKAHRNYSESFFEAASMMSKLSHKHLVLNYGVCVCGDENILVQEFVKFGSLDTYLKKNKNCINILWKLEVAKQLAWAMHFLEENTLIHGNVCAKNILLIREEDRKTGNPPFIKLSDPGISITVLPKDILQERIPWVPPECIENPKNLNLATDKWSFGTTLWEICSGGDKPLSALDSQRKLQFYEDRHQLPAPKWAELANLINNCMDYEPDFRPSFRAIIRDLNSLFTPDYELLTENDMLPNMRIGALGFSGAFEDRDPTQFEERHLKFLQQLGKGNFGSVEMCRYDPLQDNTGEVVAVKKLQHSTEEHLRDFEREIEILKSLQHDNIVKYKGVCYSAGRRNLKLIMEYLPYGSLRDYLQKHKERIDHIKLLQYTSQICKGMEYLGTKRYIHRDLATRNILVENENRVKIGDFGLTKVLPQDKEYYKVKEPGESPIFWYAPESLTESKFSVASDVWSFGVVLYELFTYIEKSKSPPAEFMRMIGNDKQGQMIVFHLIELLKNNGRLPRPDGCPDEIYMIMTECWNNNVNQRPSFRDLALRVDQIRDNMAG

| Compound | IC50 [1] | IC50 [2] |
| --- | --- | --- |
| Cn1cc(Nc2ncc3cnn(Cc4c(F)cccc4C(F)(F)F)c3n2)cn1 [Example 164, 1-(2-Fluoro-6-(trifluoromethyl)benzyl)-N-(1-methyl-1H-pyrazol-4-yl)-1H-pyrazolo[3,4-d]pyrimidin-6-amine] | < 100 nM | 1000 to 10000 nM |
| OCCn1cc(Nc2ncc3cnn(Cc4c(F)ccc(N5CCNCC5)c4F)c3n2)cn1 [Example 304, 2-(4-((1-(2,6-Difluoro-3-(piperazin-1-yl)benzyl)-1H-pyrazolo[3,4-d]pyrimidin-6-yl)amino)-1H-pyrazol-1-yl)ethanol] | < 100 nM | 1000 to 10000 nM |
| Cn1cc(Nc2ncc3cnn(Cc4ccccc4CO)c3n2)cn1 [Example 92, (2-((6-((1-Methyl-1H-pyrazol-4-yl)amino)-1H-pyrazolo[3,4-d]pyrimidin-1-yl)methyl)phenyl)methanol] | < 100 nM | 1000 to 10000 nM |
| COCCOc1cccc(Cn2ncc3cnc(Nc4cnn(C)c4)nc32)c1 [Example 132, 1-(3-(2-Methoxyethoxy)benzyl)-N-(1-methyl-1H-pyrazol-4-yl)-1H-pyrazolo[3,4-d]pyrimidin-6-amine] | < 100 nM | ≥ 10000 nM |
| Cn1cc(Nc2ncc3cnn(Cc4ccccc4F)c3n2)cn1 [Example 2, 1-(2-Fluorobenzyl)-N-(1-methyl-1H-pyrazol-4-yl)-1H-pyrazolo[3,4-d]pyrimidin-6-amine] | < 100 nM | 1000 to 10000 nM |
| Cn1cc(Nc2ncc3cnn(CCc4ccccc4F)c3n2)cn1 [Example 77, 1-(2-Fluorophenethyl)-N-(1-methyl-1H-pyrazol-4-yl)-1H-pyrazolo[3,4-d]pyrimidin-6-amine] | 100 to 1000 nM | ≥ 10000 nM |
| O=C1CNCCN1c1ccc(F)c(Cn2ncc3cnc(Nc4cnn(CCO)c4)nc32)c1F [Example 302, 1-(2,4-Difluoro-3-((6-((1-(2-hydroxyethyl)-1H-pyrazol-4-yl)amino)-1H-pyrazolo[3,4-d]pyrimidin-1-yl)methyl)phenyl)piperazin-2-one] | < 100 nM | 1000 to 10000 nM |
| COc1nn(CC(F)F)cc1Nc1ncc2cnn(Cc3cc(F)ccc3C#N)c2n1 [Example 153, 2-((6-((1-(2,2-Difluoroethyl)-3-methoxy-1H-pyrazol-4-yl)amino)-1H-pyrazolo[3,4-d]pyrimidin-1-yl)methyl)-4-fluorobenzonitrile] | < 100 nM | 100 to 1000 nM |
| Cn1cc(Nc2ncc3cnn(Cc4ccccc4F)c3n2)cc1C(=O)N1CCOCC1 [Example 244, (4-((1-(2-Fluorobenzyl)-1H-pyrazolo[3,4-d]pyrimidin-6-yl)amino)-1-methyl-1H-pyrrol-2-yl)(morpholino)methanone] | < 100 nM | < 100 nM |
| Cn1cc(Nc2ncc3cnn(Cc4ccccc4N4CCOCC4)c3n2)cn1 [Example 180, N-(1-Methyl-1H-pyrazol-4-yl)-1-(2-morpholinobenzyl)-1H-pyrazolo[3,4-d]pyrimidin-6-amine] | 100 to 1000 nM | 100 to 1000 nM |
| Fc1c(Cl)cccc1Cn1ncc2cnc(Nc3cnn(CC(F)F)c3)nc21 [Example 156, 1-(3-Chloro-2-fluorobenzyl)-N-(1-(2,2-difluoroethyl)-1H-pyrazol-4-yl)-1H-pyrazolo[3,4-d]pyrimidin-6-amine] | 100 to 1000 nM | 1000 to 10000 nM |
| OCCn1cc(Nc2ncc3cnn(Cc4c(F)c(F)cc(F)c4F)c3n2)cn1 [Example 196, 2-(4-((1-(2,3,5,6-Tetrafluorobenzyl)-1H-pyrazolo[3,4-d]pyrimidin-6-yl)amino)-1H-pyrazol-1-yl)ethanol] | < 100 nM | 100 to 1000 nM |
| OCCn1ccc(Nc2ncc3cnn(Cc4ccccc4F)c3n2)c1 [Example 247, 2-(3-((1-(2-Fluorobenzyl)-1H-pyrazolo[3,4-d]pyrimidin-6-yl)amino)-1H-pyrrol-1-yl)ethanol] | < 100 nM | 100 to 1000 nM |
| N#CCCCn1cc(Nc2ncc3cnn(Cc4ccccc4C#N)c3n2)cn1 [Example 20, 2-((6-(1-(3-Cyanopropyl)-1H-pyrazol-4-ylamino)-1H-pyrazolo[3,4-d]pyrimidin-1-yl)methyl)benzonitrile] | < 100 nM | 1000 to 10000 nM |
| Cn1cc(Nc2ncc3cnn(-c4cccc(S(N)(=O)=O)c4)c3n2)cn1 [Example 122, 3-(6-((1-Methyl-1H-pyrazol-4-yl)amino)-1H-pyrazolo[3,4-d]pyrimidin-1-yl)benzenesulfonamide] | 100 to 1000 nM | 1000 to 10000 nM |
| NC(=O)n1cc(Nc2ncc3cnn(Cc4ccccc4F)c3n2)cn1 [Example 103, 4-((1-(2-Fluorobenzyl)-1H-pyrazolo[3,4-d]pyrimidin-6-yl)amino)-1H-pyrazole-1-carboxamide] | 100 to 1000 nM | 1000 to 10000 nM |
| Cn1ccc(Nc2ncc3cnn(Cc4ccccc4C#N)c3n2)n1 [Example 3, 2-((6-(1-Methyl-1H-pyrazol-3-ylamino)-1H-pyrazolo[3,4-d]pyrimidin-1-yl)methyl)benzonitrile] | 100 to 1000 nM | ≥ 10000 nM |
| Cn1cc(Nc2ncc3cnn(-c4ccc(S(N)(=O)=O)c(F)c4)c3n2)cn1 [Example 138, 2-Fluoro-4-(6-((1-methyl-1H-pyrazol-4-yl)amino)-1H-pyrazolo[3,4-d]pyrimidin-1-yl)benzenesulfonamide] | 100 to 1000 nM | 1000 to 10000 nM |
| Cn1cc(Nc2ncc3cnn(Cc4cccc(C#N)c4F)c3n2)cn1 [Example 107, 2-Fluoro-3-((6-((1-methyl-1H-pyrazol-4-yl)amino)-1H-pyrazolo[3,4-d]pyrimidin-1-yl)methyl)benzonitrile] | < 100 nM | 1000 to 10000 nM |
